From patent US20040044075A1, “Alpha acyloxyacetamides for kallikrein and urokinase inhibition” (Genzyme Corporation, priority 2002, published 2004)

System: male rats
Experiment: Rat model of inflammatory bowel disease (DNBS-induced distal colitis)
Assay type: in vivo
Details: 500 mg/kg PO × 7, with DNBS; rats
Procedure: Compounds were tested according to procedures described in C M Hogaboam et al., Eur. J. Pharmacol. 309:261 (1996), the entire teachings of which are incorporated herein by reference. Groups of 3 overnight fasted male rats weighing 150±10 grams were used. Distal colitis was induced by intra-colonic instillation of 0.5 ml/rat of DNBS (2,4-dinitrobenzene sulfonic acid, 60 mg/ml in ethanol 30%) after which air (2 ml) was gently injected through the cannula to ensure that the solution remained in the colon. Test compound was administered orally 24 and 2 hours before DNBS instillation and then daily for 5 days in total of 7 doses. The animals were sacrificed 24 hours after the final dose of test compound administration and each colon was removed and weighed. A 30 percent or more (≧30%) inhibition in net increase of colon to 100 grams body weight ratio, relative to vehicle-control-2 group is considered significant.

Structure (SMILES)	Ave. (average final weight of the colon in grams)	Inhibition (percent inhibition in net increase of colon weight relative to control Group 2)	Net Inc. (net increase in weight of the colon relative to control Group 1)
O=C(O)c1cc(/N=N/c2ccc(S(=O)(=O)Nc3ccccn3)cc2)ccc1O [Sulfasalazine, reference compound]	0.865 grams	32%	0.378 grams

System: ICR derived male or female mice
Experiment: Acetic acid writhing assay
Assay type: in vivo
Details: 20 mg/kg IP, one hour before acetic acid
Procedure: The analgesic activity of a number of compounds of the present invention were tested in an acetic acid writhing assay disclosed in Inoue et al., Arzneimittel Forschung Drug Research 41:228 (1991), the entire teachings of which are incorporated herein by reference. The test substance was administered intraperitoneally (500, 100 and 20 mg/kg) to groups of 3 ICR derived male or female mice weighing 22±2 g one hour before the injection of acetic acid (3%, 10 ml/kg, IP). Reduction in the number of writhes by 50% or more per group of animals observed during the 5-10 minutes period after acetic acid administration, relative to a vehicle-treated control group (challenge with acetic acid), indicates analgesic activity.

Structure (SMILES)	% Reduction of Writhes
COc1ccc(NC(=O)C(OC(=O)CSc2ncccn2)c2ccc(Br)cc2)cc1OC (stereo not drawn) [Compound (29)]	17%
COc1ccc(OC)c(C(=O)CCC(=O)OC(C(=O)NCc2cc(OC)c(OC)c(OC)c2)c2ccc3ccccc3c2)c1 (stereo not drawn) [Compound (24)]	0%

Same assay, conditions: 100 mg/kg IP, one hour before acetic acid

Structure (SMILES)	% Reduction of Writhes
COc1ccc(NC(=O)C(OC(=O)CSc2ncccn2)c2ccc(Br)cc2)cc1OC (stereo not drawn) [Compound (29)]	33%
COc1ccc(OC)c(C(=O)CCC(=O)OC(C(=O)NCc2cc(OC)c(OC)c(OC)c2)c2ccc3ccccc3c2)c1 (stereo not drawn) [Compound (24)]	25%

Same assay, conditions: 500 mg/kg IP, one hour before acetic acid

Structure (SMILES)	% Reduction of Writhes
COc1ccc(NC(=O)C(OC(=O)CSc2ncccn2)c2ccc(Br)cc2)cc1OC (stereo not drawn) [Compound (29)]	83%
COc1ccc(OC)c(C(=O)CCC(=O)OC(C(=O)NCc2cc(OC)c(OC)c(OC)c2)c2ccc3ccccc3c2)c1 (stereo not drawn) [Compound (24)]	83%

Target: Kallikrein (Homo sapiens, UniProt P03952)
Sequence (P03952 whole entry): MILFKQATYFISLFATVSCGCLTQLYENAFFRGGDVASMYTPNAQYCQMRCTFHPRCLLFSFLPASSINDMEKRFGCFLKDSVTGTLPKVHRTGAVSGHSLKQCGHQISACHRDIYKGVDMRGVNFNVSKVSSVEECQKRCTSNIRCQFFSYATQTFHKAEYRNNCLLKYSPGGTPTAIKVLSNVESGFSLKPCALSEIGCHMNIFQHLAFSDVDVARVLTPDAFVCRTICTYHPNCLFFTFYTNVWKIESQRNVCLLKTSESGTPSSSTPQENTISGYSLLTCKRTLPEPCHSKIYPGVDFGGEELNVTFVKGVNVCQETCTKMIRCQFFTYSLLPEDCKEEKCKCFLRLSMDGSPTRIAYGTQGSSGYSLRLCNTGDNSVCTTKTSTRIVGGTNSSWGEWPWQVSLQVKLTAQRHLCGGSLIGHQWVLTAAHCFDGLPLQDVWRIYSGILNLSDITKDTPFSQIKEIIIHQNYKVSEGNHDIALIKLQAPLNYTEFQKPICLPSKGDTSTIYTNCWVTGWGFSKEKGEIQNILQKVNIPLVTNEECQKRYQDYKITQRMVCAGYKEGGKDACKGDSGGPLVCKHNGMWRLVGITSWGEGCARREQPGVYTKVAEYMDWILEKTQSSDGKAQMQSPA
Experiment: Kallikrein inhibition assay (fluorometric, H-Pro-Phe-Arg-AMC substrate)
Assay type: biochemical
Details: 24° C, HEPES pH 7.5, 5% DMSO, fluorescence after ten minutes
Procedure: Kallikrein activity was assayed fluorometrically with an aminomethyl coumarin-containing (AMC-containing) substrate according to procedures described in Zimmerman et al., Proc. Natl. Acad. Sci. USA 75:750 (1978), the entire teachings of which are incorporated herein by reference. Specifically, enzyme assays with varying concentrations of the fluorogenic substrate H-Pro-Phe-Arg-AMC were conducted at 24° C in 0.05 M 4-(2-hydroxyethyl)-piperazineethanesulfonic acid (HEPES) buffer, pH 7.5/5% (vol/vol) dimethyl sulfoxide. The final volume was 0.1 ml in each assay. Fluorescence was read after ten minutes at 360 nm (activation wavelength) and 460 nm (emission wavelength).

Structure (SMILES)	IC50
COc1cc(CNC(=O)C(OC(=O)c2csc3cc4c(cc23)OC(C)(C)O4)c2ccc(Br)cc2)cc(OC)c1OC (stereo not drawn) [Compound (36)]	3.67 µM
O=C(CCOc1ccccc1)OC(C(=O)Nc1ccc2ncccc2c1)c1ccc(Br)cc1 (stereo not drawn) [Compound (32)]	1.34 µM
COc1ccc(NC(=O)C(OC(=O)CSc2ncccn2)c2ccc(Br)cc2)cc1OC (stereo not drawn) [Compound (29)]	0.31 µM
COc1ccc(CC(=O)OC(C(=O)NC2CC2)c2ccc(C#N)cc2)cc1 (stereo not drawn) [Compound (35)]	0.391 µM
COc1cc(CNC(=O)C(OC(=O)Cc2c[nH]c3ccc(Br)cc23)c2ccc(Br)cc2)cc(OC)c1OC (stereo not drawn) [Compound (39)]	2.68 µM
COc1ccc(OC)c(C(=O)CCC(=O)OC(C(=O)NC2CC2)c2ccc(Br)cc2)c1 (stereo not drawn) [Compound (1)]	0.174 µM
COc1ccc(OC)c(C(=O)CCC(=O)OC(C(=O)Nc2ccc(OC)c(OC)c2)c2ccc(Br)cc2)c1 (stereo not drawn) [Compound (25)]	0.275 µM
N#Cc1ccc(C(OC(=O)Cc2c[nH]c3ccc(Br)cc23)C(=O)NC2CC2)cc1 (stereo not drawn) [Compound (2)]	0.167 µM
COc1ccc(CCNC(=O)C(OC(=O)CSc2ncccn2)c2ccc(C#N)cc2)cc1 (stereo not drawn) [Compound (31)]	0.543 µM
N#Cc1ccc(C(OC(=O)Cc2c[nH]c3ccccc23)C(=O)NC2CC2)cc1 (stereo not drawn) [Compound (38)]	3.77 µM
COc1ccc(CC(=O)OC(C(=O)Nc2ccc(OC)c(OC)c2)c2ccc(Br)cc2)cc1 (stereo not drawn) [Compound (28)]	0.68 µM
COc1ccc(OC)c(C(=O)CCC(=O)OC(C(=O)NCc2cc(OC)c(OC)c(OC)c2)c2ccc3ccccc3c2)c1 (stereo not drawn) [Compound (24)]	0.247 µM
COc1ccc(OC)c(C(=O)CCC(=O)OC(C(=O)NCc2cc(OC)c(OC)c(OC)c2)c2ccc(C(F)(F)F)cc2)c1 (stereo not drawn) [Compound (34)]	0.731 µM
NC(=O)c1ccc(NC(=O)C(OC(=O)CCOc2ccccc2)c2ccc(Br)cc2)cc1 (stereo not drawn) [Compound (33)]	0.459 µM
COc1ccc(NC(=O)C(OC(=O)CCOc2ccccc2)c2ccc(Br)cc2)cc1 (stereo not drawn) [Compound (30)]	0.714 µM
COc1ccc(CC(=O)OC(C(=O)Nc2ccc(OC)c(OC)c2)c2ccc(C#N)cc2)cc1 (stereo not drawn) [Compound (22)]	0.428 µM

Results, then the molecule that gave them:

IC50	Structure (SMILES)
6.47 µM	COc1cc(CNC(=O)C(OC(=O)CSc2nc(C)cc(C)n2)c2cccc(C#N)c2)cc(OC)c1OC (stereo not drawn) [Compound (18)]
1.18 µM	COc1cc(CNC(=O)C(OC(=O)CCCc2ccccc2)c2cccc(C#N)c2)cc(OC)c1OC (stereo not drawn) [Compound (21)]
1.06 µM	N#Cc1ccc(C(OC(=O)CCC2CCCCC2)C(=O)NC2CC2)cc1 (stereo not drawn) [Compound (3)]
0.577 µM	COc1cc(CNC(=O)C(OC(=O)CCOc2ccccc2)c2cccc(C#N)c2)cc(OC)c1OC (stereo not drawn) [Compound (15)]
0.576 µM	COc1ccc(CC(=O)OC(C(=O)NCc2cc(OC)c(OC)c(OC)c2)c2ccc(C#N)cc2)cc1 (stereo not drawn) [Compound (23)]
1.48 µM	COc1cc(CNC(=O)C(OC(=O)CSc2ncccn2)c2cccc(C#N)c2)cc(OC)c1OC (stereo not drawn) [Compound (20)]
0.253 µM	COc1ccc(OC)c(C(=O)CCC(=O)OC(C(=O)Nc2ccc(OC)c(OC)c2)c2cccc(C#N)c2)c1 (stereo not drawn) [Compound (16)]
1.18 µM	COc1cc(CNC(=O)C(OC(=O)CCC(=O)c2ccccc2)c2ccc(S(C)(=O)=O)cc2)cc(OC)c1OC (stereo not drawn) [Compound (14)]
0.384 µM	COc1cc(CNC(=O)C(OC(=O)CSc2nccc(C)n2)c2cccc(C#N)c2)cc(OC)c1OC (stereo not drawn) [Compound (17)]
0.874 µM	COc1cc(CNC(=O)C(OC(=O)CCC(=O)c2ccccc2)c2ccc(SC)cc2)cc(OC)c1OC (stereo not drawn) [Compound (13)]
0.442 µM	COC(=O)c1ccc(C(OC(=O)CCC(=O)c2ccccc2)C(=O)NCc2cc(OC)c(OC)c(OC)c2)cc1 (stereo not drawn) [Compound (11)]
1.69 µM	COc1cccc(OCCC(=O)OC(C(=O)NCc2cc(OC)c(OC)c(OC)c2)c2cccc(C#N)c2)c1 (stereo not drawn) [Compound (19)]
1.67 µM	COc1ccc(OC)c(C(=O)CCC(=O)OC(C(=O)NCc2cc(OC)c(OC)c(OC)c2)c2ccccc2)c1 (stereo not drawn) [Compound (37)]
0.737 µM	COc1cc(CNC(=O)C(OC(=O)CCC(=O)c2ccccc2)c2ccccc2)cc(OC)c1OC (stereo not drawn) [Compound (12)]

Target: Urokinase (Homo sapiens, UniProt P00749)
Experiment: Urokinase assay (fluorometric, Cbz-Gly-Gly-Arg-AMC substrate)
Assay type: biochemical
Details: 24° C, HEPES pH 7.5, 5% DMSO, fluorescence after ten minutes; read-out: IC50 (μM), urokinase inhibition
Procedure: Urokinase activity was assayed fluorometrically with an aminomethyl coumarin-containing (AMC-containing) substrate according to procedures described in Zimmerman et al, Proc. Natl. Acad. Sci. USA 75:750 (1978), the entire teachings of which are incorporated herein by reference. Specifically, enzyme assays with varying concentrations of the fluorogenic substrate Cbz-Gly-Gly-Arg-AMC were conducted at 24° C. in 0.05 M 4-(2-hydroxyethyl)-piperazineethanesulfonic acid (HEPES) buffer, pH 7.5/5% (vol/vol) dimethyl sulfoxide; the final volume was 0.1 ml in each assay.
Fluorescence was read after ten minutes at 360 nm (activation wavelength) and 460 nm (emission wavelength).

Structure (SMILES)	IC50
COc1ccc(C(OC(=O)CSc2ncccn2)C(=O)NCc2ccc3c(c2)OCO3)cc1 (stereo not drawn) [Compound (49)]	1.37 µM
N#Cc1ccc(C(OC(=O)CCC2CCCC2)C(=O)NC2CC2)cc1 (stereo not drawn) [Compound (55)]	0.151 µM
COc1ccc(CC(=O)OC(C(=O)NC2CC2)c2ccc(C#N)cc2)cc1 (stereo not drawn) [Compound (7)]	0.11 µM
COc1ccc(CCNC(=O)C(OC(=O)CSc2ncccn2)c2ccc(C(F)(F)F)cc2)cc1 (stereo not drawn) [Compound (48)]	5.38 µM
COc1ccc(CCNC(=O)C(OC(=O)CSc2ncccn2)c2ccc(C#N)cc2)cc1 (stereo not drawn) [Compound (8)]	0.112 µM
CCSCCNC(=O)C(OC(=O)Cc1ccc(OC)cc1)c1ccc(C#N)cc1 (stereo not drawn) [Compound (52)]	0.628 µM
COc1ccc(CC(=O)OC(C(=O)NCc2ccc3c(c2)OCO3)c2ccc(C#N)cc2)cc1 (stereo not drawn) [Compound (10)]	0.783 µM
COc1ccc(CCNC(=O)C(OC(=O)Cc2ccc(OC)cc2)c2ccc(C#N)cc2)cc1 (stereo not drawn) [Compound (51)]	1.22 µM
N#Cc1ccc(C(OC(=O)CSc2ncccn2)C(=O)NC2CC2)cc1 (stereo not drawn) [Compound (6)]	0.032 µM
N#Cc1ccc(C(OC(=O)Cc2c[nH]c3ccc(Br)cc23)C(=O)NC2CC2)cc1 (stereo not drawn) [Compound (5)]	0.029 µM
N#Cc1ccc(C(OC(=O)Cc2c[nH]c3ccccc23)C(=O)NC2CC2)cc1 (stereo not drawn) [Compound (4)]	0.086 µM
COc1ccc(CCNC(=O)C(OC(=O)CSc2ncccn2)c2ccc(OC)cc2)cc1 (stereo not drawn) [Compound (47)]	2.38 µM
COc1ccc(CC(=O)OC(C(=O)Nc2ccc(OC)c(OC)c2)c2ccc(C#N)cc2)cc1 (stereo not drawn) [Compound (41)]	2.32 µM
COc1ccc(NC(=O)C(OC(=O)CSc2ncccn2)c2ccc(Br)cc2)cc1OC (stereo not drawn) [Compound (43)]	3.39 µM
O=C(CSc1ncccn1)OC(C(=O)NCc1ccc2c(c1)OCO2)c1ccc(C(F)(F)F)cc1 (stereo not drawn) [Compound (50)]	3.1 µM
COc1ccc(CCNC(=O)C(OC(=O)CSc2ncccn2)c2ccc3ccccc3c2)cc1 (stereo not drawn) [Compound (46)]	2.93 µM
CCOC(=O)CCNC(=O)C(OC(=O)Cc1ccc(OC)cc1)c1ccc(C#N)cc1 (stereo not drawn) [Compound (53)]	1.06 µM
COc1ccc(CC(=O)OC(C(=O)NC2CC2)c2ccccc2)cc1 (stereo not drawn) [Compound (54)]	0.814 µM
COc1ccc(CCNC(=O)C(OC(=O)CSc2ncccn2)c2ccc(Br)cc2)cc1 (stereo not drawn) [Compound (45)]	1.41 µM

More lines, now with the values ahead:

IC50	Structure (SMILES)
6.09 µM	COc1cc(CNC(=O)C(OC(=O)CCOc2ccccc2)c2cccc(C#N)c2)cc(OC)c1OC (stereo not drawn) [Compound (40)]
0.923 µM	COc1cc(CNC(=O)C(OC(=O)CSc2ncccn2)c2cccc(C#N)c2)cc(OC)c1OC (stereo not drawn) [Compound (9)]
0.055 µM	N#Cc1ccc(C(OC(=O)CCC2CCCCC2)C(=O)NC2CC2)cc1 (stereo not drawn) [Compound (56)]
1.97 µM	COc1ccc(CC(=O)OC(C(=O)NCc2cc(OC)c(OC)c(OC)c2)c2ccc(C#N)cc2)cc1 (stereo not drawn) [Compound (42)]
1.78 µM	COc1cc(CNC(=O)C(OC(=O)CCC2CCCCC2)c2cccc(C#N)c2)cc(OC)c1OC (stereo not drawn) [Compound (44)]
